Test: Hygroscopicity of dried anhydrous aripiprazole Type I crystals
Type: physicochemical
Settings: vacuum of 22 inches Hg
Method: […] A dish of phosphorous pentoxide (dessicant) also was placed in the oven. Periodically, approximately a one (1) gram sample of the aripiprazole wet cake was removed from the oven and analyzed for moisture content by the volumetric Karl Fischer titration method and also for its hygroscopicity. At the end of the 40 hour period, the moisture content of the final sample was analyzed using the coulometric Karl Fischer titration method and the hygroscopicity of the sample also was determined.
Another portion of the aripiprazole wet cake (20 g), prepared in accordance with the above-described procedure, was placed in a drying oven, the oven maintained at a temperature between 70 to 80° C., and under a vacuum of 22 inches Hg for a period of 40 hours. A dish of phosphorous pentoxide (dessicant) also was placed in the oven to facilitate drying. Periodically, approximately a one (1) gram sample of the aripiprazole wet cake was removed from the oven and analyzed for moisture content by the volumetric Karl Fischer titration method and also for its hygroscopicity. At the end of the 40 hours, the moisture content of the final sample was analyzed using the coulometric Karl Fischer titration method and the hygroscopicity of the sample also was determined.

[1] = final sample after 40 Hours in 60 to 65° C. Oven
[2] = final sample after 40 Hours in 70 to 80° C. Oven

SMILES	Hygroscopicity (%) [1]	Hygroscopicity (%) [2]
O=C1CCc2ccc(OCCCCN3CCN(c4cccc(Cl)c4Cl)CC3)cc2N1 [Batch 2, 7-[4-[4-(2,3-dichlorophenyl)-1-piperazinyl]butoxy]-3,4-dihydro-2-(1H)-quinolinone]	1.2%	0.7%
O=C1CCc2ccc(OCCCCN3CCN(c4cccc(Cl)c4Cl)CC3)cc2N1 [Batch 3, 7-[4-[4-(2,3-dichlorophenyl)-1-piperazinyl]butoxy]-3,4-dihydro-2-(1H)-quinolinone]	1.8%	0.4%
O=C1CCc2ccc(OCCCCN3CCN(c4cccc(Cl)c4Cl)CC3)cc2N1 [Batch 1, 7-[4-[4-(2,3-dichlorophenyl)-1-piperazinyl]butoxy]-3,4-dihydro-2-(1H)-quinolinone]	3.2%	0.8%

Reference: patent US8039621B2, “Process for preparing anhydrous Aripirazole type I” (Cambrex Charles City, Inc., priority 2006, dated 2011)
